Measurements as given in ChEMBL document CHEMBL1201862, “PubChem BioAssay data set” (2004).
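How tested: cells in 96-well plates exposed to compound for 48 hours at five concentrations. GI50: concentration for 50% inhibition of growth.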 Active and inactive are the calls of the source. Cut-off read from the data, not from the text of the source: active = GI50 up to about 1.1 µM and inactive = higher.

Legend:
Assay in all cases: NCI anticancer screen, dose series, 48 h
SNB-78 = test system: SNB-78
UACC-257 = test system: UACC-257
CCRF-CEM = test system: CCRF-CEM
KM12 = test system: KM12
HCT-116 = test system: HCT-116
HCC 2998 = test system: HCC 2998
OVCAR-3 = test system: OVCAR-3
OVCAR-8 = test system: OVCAR-8
SNB-19 = test system: SNB-19
SK-MEL-2 = test system: SK-MEL-2
XF498 = test system: XF498
A498 = test system: A498
HOP-18 = test system: HOP-18
KM-20L2 = test system: KM-20L2
HT-29 = test system: HT-29
SK-MEL-28 = test system: SK-MEL-28
NCI-H460 = test system: NCI-H460
K562 = test system: K562
NCI-H23 = test system: NCI-H23
Malme-3M = test system: Malme-3M
EKVX = test system: EKVX
RPMI-8226 = test system: RPMI-8226
SK-MEL-5 = test system: SK-MEL-5
ACHN = test system: ACHN
HCT-15 = test system: HCT-15
SF-539 = test system: SF-539
OVCAR-5 = test system: OVCAR-5
SNB-75 = test system: SNB-75
SF-295 = test system: SF-295
M14 = test system: M14
SW-620 = test system: SW-620
NCI-H522 = test system: NCI-H522
A549 = test system: A549
HOP-62 = test system: HOP-62
LXFL 529 = test system: LXFL 529
TK-10 = test system: TK-10
786-0 = test system: 786-0
SN12C = test system: SN12C
DLD-1 = test system: DLD-1
UO-31 = test system: UO-31
SF-268 = test system: SF-268
OVCAR-4 = test system: OVCAR-4
U-251 = test system: U-251
MOLT-4 = test system: MOLT-4
CAKI-1 = test system: CAKI-1
SK-OV-3 = test system: SK-OV-3
RXF 393 = test system: RXF 393
DMS-114 = test system: DMS-114
UACC-62 = test system: UACC-62
COLO 205 = test system: COLO 205
M19-MEL = test system: M19-MEL
NCI-H226 = test system: NCI-H226
SR = test system: SR
LOX IMVI = test system: LOX IMVI
HL-60 = test system: HL-60
IGROV-1 = test system: IGROV-1
HOP-92 = test system: HOP-92

With `COc1ccc2c(c1)OC(c1ccccc1O)CC2=O` (stereo not drawn) the GI50 (SNB-78) was 26.5 µM (inactive), the GI50 (UACC-257) was 39.5 µM (inactive) and the GI50 (CCRF-CEM) was 30.5 µM (inactive). For the same compound, the GI50 (KM12) was 27.5 µM (inactive), the GI50 (HCT-116) was 29.5 µM (inactive) and the GI50 (HCC 2998) was 48.9 µM (inactive). The GI50 (OVCAR-3) was 28.1 µM (inactive), the GI50 (OVCAR-8) was 47.6 µM (inactive) and the GI50 (SNB-19) was > 100 µM (inactive). For the same compound, the GI50 (SK-MEL-2) was 26.6 µM (inactive), the GI50 (XF498) was 40.7 µM (inactive) and the GI50 (A498) was 53.1 µM (inactive). The GI50 (HOP-18) was 5.64 µM (inactive), the GI50 (KM-20L2) was > 100 µM (inactive) and the GI50 (HT-29) was 74.6 µM (inactive). For the same compound, the GI50 (SK-MEL-28) was 48.2 µM (inactive), the GI50 (NCI-H460) was 50.1 µM (inactive) and the GI50 (K562) was 28.3 µM (inactive). The GI50 (NCI-H23) was 28.7 µM (inactive), the GI50 (Malme-3M) was 47.3 µM (inactive) and the GI50 (EKVX) was 96.8 µM (inactive). The GI50 (RPMI-8226) was 23.9 µM (inactive), the GI50 (SK-MEL-5) was 40 µM (inactive) and the GI50 (ACHN) was 46.2 µM (inactive). For the same compound, the GI50 (HCT-15) was 27.2 µM, the GI50 (SF-539) was 45.9 µM (inactive) and the GI50 (OVCAR-5) was > 100 µM (inactive). For the same compound, the GI50 (SNB-75) was 30.9 µM (inactive), the GI50 (SF-295) was 45.7 µM (inactive) and the GI50 (M14) was 39.9 µM (inactive). For the same compound, the GI50 (SW-620) was 40.6 µM (inactive), the GI50 (NCI-H522) was 27.9 µM (inactive) and the GI50 (A549) was 40.6 µM (inactive). For the same compound, the GI50 (HOP-62) was 41.4 µM (inactive), the GI50 (LXFL 529) was 21.7 µM (inactive) and the GI50 (TK-10) was > 100 µM (inactive). The GI50 (786-0) was 40.5 µM (inactive), the GI50 (SN12C) was 41.5 µM (inactive) and the GI50 (DLD-1) was 29 µM (inactive). The GI50 (UO-31) was 18.1 µM (inactive), the GI50 (SF-268) was 29.2 µM (inactive) and the GI50 (OVCAR-4) was 47.3 µM (inactive). For the same compound, the GI50 (U-251) was 44.5 µM (inactive), the GI50 (MOLT-4) was 26.1 µM (inactive) and the GI50 (CAKI-1) was 51.5 µM (inactive).

`CCC(=O)C(C)C1=Nc2nnc(CCCCCCCc3nnc4n3C(=O)C(C(C)C(=O)CC)=N4)n2C1=O` (stereo not drawn) was tested, and the GI50 (UACC-257) was > 100 µM (inactive), the GI50 (SK-OV-3) was > 100 µM (inactive) and the GI50 (CCRF-CEM) was > 100 µM (inactive). For the same compound, the GI50 (KM12) was > 100 µM (inactive), the GI50 (HCT-116) was > 100 µM (inactive) and the GI50 (HCC 2998) was > 100 µM (inactive). For the same compound, the GI50 (OVCAR-3) was > 100 µM (inactive), the GI50 (RXF 393) was > 100 µM (inactive) and the GI50 (DMS-114) was > 100 µM (inactive). The GI50 (OVCAR-8) was > 100 µM (inactive), the GI50 (SNB-19) was > 100 µM (inactive) and the GI50 (XF498) was > 100 µM (inactive). For the same compound, the GI50 (A498) was > 100 µM (inactive), the GI50 (HOP-18) was > 100 µM (inactive) and the GI50 (KM-20L2) was > 100 µM (inactive). The GI50 (HT-29) was > 100 µM (inactive), the GI50 (UACC-62) was > 100 µM (inactive) and the GI50 (SK-MEL-28) was > 100 µM (inactive). For the same compound, the GI50 (NCI-H460) was > 100 µM (inactive), the GI50 (COLO 205) was > 100 µM (inactive) and the GI50 (K562) was > 100 µM (inactive). The GI50 (M19-MEL) was > 100 µM (inactive), the GI50 (NCI-H23) was > 100 µM (inactive) and the GI50 (Malme-3M) was > 100 µM (inactive). The GI50 (EKVX) was > 100 µM (inactive), the GI50 (RPMI-8226) was > 100 µM (inactive) and the GI50 (SK-MEL-5) was > 100 µM (inactive). For the same compound, the GI50 (ACHN) was > 100 µM (inactive), the GI50 (HCT-15) was > 100 µM and the GI50 (SF-539) was > 100 µM (inactive). The GI50 (OVCAR-5) was > 100 µM (inactive), the GI50 (SNB-75) was > 100 µM (inactive) and the GI50 (NCI-H226) was > 100 µM (inactive). For the same compound, the GI50 (SF-295) was > 100 µM (inactive), the GI50 (SR) was 21.6 µM (inactive) and the GI50 (M14) was > 100 µM (inactive). For the same compound, the GI50 (SW-620) was > 100 µM (inactive), the GI50 (NCI-H522) was > 100 µM (inactive) and the GI50 (A549) was > 100 µM (inactive). For the same compound, the GI50 (HOP-62) was > 100 µM (inactive), the GI50 (LXFL 529) was > 100 µM (inactive) and the GI50 (LOX IMVI) was > 100 µM (inactive). For the same compound, the GI50 (TK-10) was > 100 µM (inactive), the GI50 (HL-60) was > 100 µM (inactive) and the GI50 (786-0) was > 100 µM (inactive). The GI50 (IGROV-1) was > 100 µM (inactive), the GI50 (HOP-92) was > 100 µM (inactive) and the GI50 (SN12C) was > 100 µM (inactive). For the same compound, the GI50 (UO-31) was > 100 µM (inactive), the GI50 (SF-268) was > 100 µM (inactive) and the GI50 (U-251) was > 100 µM (inactive). The GI50 (MOLT-4) was > 100 µM (inactive) and the GI50 (CAKI-1) was > 100 µM (inactive).
